Reference: US20220202963A1, “RADIOLABELED COMPOUNDS” (Hoffmann-La Roche Inc., priority 2019, published 2022)

Columns and labels:
[1] = molecular target: T1, MAGL (Homo sapiens, UniProt Q99685); assay: 2-AG assay (MAGL inhibitory activity, hydrolysis of 2-arachidonoylglycerol followed by mass spectrometry); format: biochemical; conditions: 50 pM MAGL, 8 μM 2-arachidonoylglycerol, 15 min pre-incubation, 30 min at RT
T1 sequence (Q99685 1-303): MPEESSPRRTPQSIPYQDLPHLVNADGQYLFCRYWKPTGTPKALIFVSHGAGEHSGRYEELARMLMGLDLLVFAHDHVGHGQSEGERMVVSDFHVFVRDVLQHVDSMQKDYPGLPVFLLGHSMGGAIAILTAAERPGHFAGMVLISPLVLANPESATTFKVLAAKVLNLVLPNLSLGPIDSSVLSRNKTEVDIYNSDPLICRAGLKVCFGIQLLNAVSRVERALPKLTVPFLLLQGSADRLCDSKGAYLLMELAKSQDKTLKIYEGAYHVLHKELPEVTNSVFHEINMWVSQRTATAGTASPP
Experimental: Compounds were profiled for MAGL inhibitory activity by determining the enzymatic activity by following the hydrolysis of the natural substrate, 2-arachidonoylglycerol, resulting in arachidonic acid, which can be followed by mass spectrometry. This assay is hereinafter abbreviated “2-AG assay”.
A C18 SPE cartridge (G9205A) was used in an acetonitrile/water liquid setup. […] The activity of the compounds was calculated based on the ratio of intensities [arachidonic acid/d8-arachidonic acid].

[2] = molecular target: T2, MAGL (Mus musculus, UniProt O35678); assay: In vitro autoradiography of 3H ligands on sagittal mouse brain sections (MAGL WT and ko); conditions: 1 nM radioligand, 30 min; for binding on wt tissue samples (autoradiography): MAGL WT mouse brain sections; for binding on MAGL ko tissue sections (autoradiography; selectivity, non-specific binding): MAGL ko mouse brain sections
T2 sequence (O35678 1-303): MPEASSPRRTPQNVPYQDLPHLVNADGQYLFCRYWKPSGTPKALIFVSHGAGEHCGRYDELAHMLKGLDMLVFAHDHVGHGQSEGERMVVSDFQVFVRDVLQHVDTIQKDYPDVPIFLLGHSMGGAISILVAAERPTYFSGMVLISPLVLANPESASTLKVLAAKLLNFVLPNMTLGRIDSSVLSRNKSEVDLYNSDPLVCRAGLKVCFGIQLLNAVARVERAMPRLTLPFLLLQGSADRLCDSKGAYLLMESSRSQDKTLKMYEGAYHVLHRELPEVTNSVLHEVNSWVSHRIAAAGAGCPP
Experimental: Receptor autoradiography was performed on sagittal sections of fresh-frozen brains from MAGL WT and ko mice (C57BL6/6NTac-Mgllem4993_02Tac). Tissue sections (10 μm) from brain specimens were cut in a cryostat (Leica CM3050) at −17° C. chamber temperature and −15° C. object temperature and thaw-mounted on microscope glass slides (HistoBond, Paul Marienfeld GmbH, Lauda-Königshofen, Germany). Brain sections were incubated for 30 min in 50 mM Tris-HCl buffer pH 7.4 with 0.1% BSA at RT containing 1 nM of the radioligand. Sections were rinsed three times for 10 min in ice-cold 50 mM Tris-HCl buffer, followed by three dips into ice-cold H2O and air-dried at 4° C. before being exposed to tritium-sensitive imaging plates (BAS-IP TR2025, Fujifilm, Dielsdorf, Switzerland) with a tritium microscale for 5 days at RT. The imaging plates were scanned with a high-resolution phosphor imager (Fuji BAS-5000, Bucher Biotec AG, Basel, Switzerland) and the binding intensity for selected brain areas was quantified using an MCID M2 image analysis software (version 7; InterFocus Imaging GmbH, Mering, Germany).

[3] = molecular target: T3, MAGL (Rattus norvegicus, UniProt Q8R431); assay: In vivo binding to MAGL assessed by ex vivo autoradiography in CD(SD) rats; set-up: 10 μm sagittal brain sections from Wistar rats were used in in vitro autoradiography; from tissue; host or cells: rat brain (Wistar sections; CD(SD) rats dosed in vivo); conditions: male CD(SD) rats, 1 mCi/kg i.v., 90 min post injection; blocked by a high dose of a MAGL inhibitor
T3 sequence (Q8R431 1-303): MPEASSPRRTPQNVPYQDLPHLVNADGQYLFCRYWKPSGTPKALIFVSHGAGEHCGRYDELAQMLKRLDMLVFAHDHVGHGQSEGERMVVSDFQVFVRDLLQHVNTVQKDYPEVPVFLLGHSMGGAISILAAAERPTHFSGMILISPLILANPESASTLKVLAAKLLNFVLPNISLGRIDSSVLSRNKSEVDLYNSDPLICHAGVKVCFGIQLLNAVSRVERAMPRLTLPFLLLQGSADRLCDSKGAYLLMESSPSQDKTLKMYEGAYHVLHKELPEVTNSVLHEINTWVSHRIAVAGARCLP
Experimental: Rats were sacrificed by decapitation 90 min after administration of the radioligand. Brains were rapidly removed and divided in two halves along their sagittal axis. The brain halves were frozen in dry ice for following cryosectioning. The hemisphere was placed in a cryostat and sagittal sections (10 μm thickness) were cut. Brain sections were mounted on Histobond glass slides (Marienfeld Laboratories Glassware, Germany), dried at room temperature and exposed, together with tritium microscales, to tritium-sensitive imaging plates (BAS-TR2025) for five days. The imaging plates were scanned in a Fujifilm BAS-5000 high resolution phosphor imager and the amount of [^3H]2 bound to the brain regions of interest was quantified with an MCID M2 image analysis system (Imaging Research Inc., St. Catherines, Ontario, Canada).

[4] = molecular target: T3, MAGL; assay: In vitro autoradiography of 11C tracers on sagittal brain sections from Wistar rats
Experimental: 10 μm sagittal brain sections from Wistar rats were used in in vitro autoradiography. On the day of experimentation, the slices were thawed on ice (10 min) and pre-conditioned in an aqueous buffer containing 30 mM 4-(2-hydroxyethyl)-1-piperazineethanesulfonic acid (HEPES), 1.2 mM MgCl2, 110 mM NaCl, 5 mM KCl, 2.5 mM CaCl2, and 1% fatty-acid-free bovine serum albumin (pH 7.4, 0° C.) for 10 min. The tissue samples were dried in air and subsequently incubated with radiotracer or a mixture of radiotracer and a cold MAGL inhibitor as a blocker at ambient temperature for 30 min. Upon completion of the incubation time, the slices were washed once for 3 min in the aqueous buffer described above, and twice for 2 min in the aqueous buffer described without 1% fatty-acid-free bovine serum albumin. After two quick dips in distilled water, the sections were dried in the air and exposed to a phosphor image plate for 1 h. The films were scanned by a BAS5000 reader (Fuji), and the data were analyzed using AIDA software, version 4.50.010 (Raytest Isotopenmessgeräte GmbH). For [^11C]1, 10 μM SAR127303 and 10 μg/mL 10 were used as blockers.

Structure (SMILES)	IC50 [1]	also measured
Cc1ccc(/C(F)=C\C2CN(C(=O)N3CC[C@@H]4OCC(=O)N[C@@H]4C3)C2)cc1F [Example 12, (4aR,8aS)-6-[3-[(E)-2-Fluoro-2-(3-fluoro-4-methyl-phenyl)vinyl]azetidine-1-carbonyl]-4,4a,5,7,8,8a-hexahydropyrido[4,3-b][1,4]oxazin-3-one]	40 nM	–
Cc1ccc(CCC2CN(C(=O)N3CC[C@@H]4OCC(=O)N[C@@H]4C3)C2)c(F)c1 [Example 3, (4aR,8aS)-6-[3-[2-(2-Fluoro-4-methyl-phenyl)ethyl]azetidine-1-carbonyl]-4,4a,5,7,8,8a-hexahydropyrido[4,3-b][1,4]oxazin-3-one]	5 nM	–
Cc1ccc(C(F)=CC2CN(C(=O)N3CC[C@@H]4OCC(=O)N[C@@H]4C3)C2)cc1F (mixture of isomers) [Example 10, (4aR,8aS)-6-[3-[2-Fluoro-2-(3-fluoro-4-methyl-phenyl)vinyl]azetidine-1-carbonyl]-4,4a,5,7,8,8a-hexahydropyrido[4,3-b][1,4]oxazin-3-one]	20 nM	–
COc1ccccc1CC1CC2(C1)CN(C(=O)N1CC[C@@H]3OCC(=O)N[C@@H]3C1)C2 [Example 7, (4aR,8aS)-6-[6-[(2-Methoxyphenyl)methyl]-2-azaspiro[3.3]heptane-2-carbonyl]-4,4a,5,7,8,8a-hexahydropyrido[4,3-b][1,4]oxazin-3-one]	0.2 nM	–
O=C1CO[C@H]2CCN(C(=O)N3CC4(CC(Cc5c(F)cccc5F)C4)C3)C[C@H]2N1 [Example 6, (4aR,8aS)-6-[6-[(2,6-Difluorophenyl)methyl]-2-azaspiro[3.3]heptane-2-carbonyl]-4,4a,5,7,8,8a-hexahydropyrido[4,3-b][1,4]oxazin-3-one]	0.1 nM	–
COc1cccc(F)c1CC1CC2(C1)CN(C(=O)N1CC[C@@H]3OCC(=O)N[C@@H]3C1)C2 [Example 2, (4aR,8aS)-6-[6-[(2-Fluoro-6-methoxy-phenyl)methyl]-2-azaspiro[3.3]heptane-2-carbonyl]-4,4a,5,7,8,8a-hexahydropyrido[4,3-b][1,4]oxazin-3-one]	0.07 nM	–
O=C1CO[C@H]2CCN(C(=O)N3CC(c4ccc(C5CCC5)cc4)C3)C[C@H]2N1 [Example 5, (4aR,8aS)-6-[3-(4-Cyclobutylphenyl)azetidine-1-carbonyl]-4,4a,5,7,8,8a-hexahydropyrido[4,3-b][1,4]oxazin-3-one]	1 nM	–
Cc1ccc(CCC2CN(C(=O)N3CC[C@@H]4OCC(=O)N[C@@H]4C3)C2)c(F)c1 [Example [^3H]3, [^3H](4aR,8aS)-6-[3-[2-(2-Fluoro-4-methyl-phenyl)ethyl]azetidine-1-carbonyl]-4,4a,5,7,8,8a-hexahydropyrido[4,3-b][1,4]oxazin-3-one]	–	binding on wt tissue samples (autoradiography) [2]: Selective binding to MAGL; binding on MAGL ko tissue sections (autoradiography; selectivity, non-specific binding) [2]: absence of binding
COc1cccc(F)c1CC1CC2(C1)CN(C(=O)N1CC[C@@H]3OCC(=O)N[C@@H]3C1)C2 [Example [^3H]2, [^3H](4aR,8aS)-6-[6-[(2-Fluoro-6-methoxy-phenyl)methyl]-2-azaspiro[3.3]heptane-2-carbonyl]-4,4a,5,7,8,8a-hexahydropyrido[4,3-b][1,4]oxazin-3-one]	–	in vivo binding to MAGL in brain (ex vivo autoradiography) [3]: Selective and specific binding to MAGL; binding on wt tissue samples (autoradiography) [2]: Selective binding to MAGL; binding on MAGL ko tissue sections (autoradiography; selectivity, non-specific binding) [2]: absence of binding
Cc1ccc(/C(F)=C/C2CN(C(=O)N3CC[C@@H]4OCC(=O)N[C@@H]4C3)C2)cc1F [Example 11, (4aR,8aS)-6-[3-[(Z)-2-Fluoro-2-(3-fluoro-4-methyl-phenyl)vinyl]azetidine-1-carbonyl]-4,4a,5,7,8,8a-hexahydropyrido[4,3-b][1,4]oxazin-3-one]	90 nM	–
O=C1CO[C@H]2CCN(C(=O)N3CC(c4ccc(C5CCC5)cc4)C3)C[C@H]2N1 [Example [^11C]5, [^11C](4aR,8aS)-6-[3-(4-Cyclobutylphenyl)azetidine-1-carbonyl]-4,4a,5,7,8,8a-hexahydropyrido[4,3-b][1,4]oxazin-3-one]	–	binding to MAGL on sagittal rat brain sections (autoradiography) ([4]; Wistar rat brain sections, radiotracer alone, 30 min): selectively bind to MAGL; blocking of binding by cold MAGL inhibitors ([4]; co-incubation with blockers (10 μM SAR127303 and 10 μg/mL 10 for [11C]1; 10 μM SAR127303 and 10 μM PF-06795071 for [11C]5)): binding can be blocked
CC(C)COc1ccc(C2CN(C(=O)N3CC[C@@H]4OCC(=O)N[C@@H]4C3)C2)cc1 [Example 9, (4aR,8aS)-6-[3-(4-isobutoxyphenyl)azetidine-1-carbonyl]-4,4a,5,7,8,8a-hexahydropyrido[4,3-b][1,4]oxazin-3-one]	1 nM	–
COc1ccc(CCC2CN(C(=O)N3CC[C@@H]4OCC(=O)N[C@@H]4C3)C2)c(C(F)(F)F)c1 [Example 4, (4aR,8aS)-6-[3-[2-[4-Methoxy-2-(trifluoromethyl)phenyl]ethyl]azetidine-1-carbonyl]-4,4a,5,7,8,8a-hexahydropyrido[4,3-b][1,4]oxazin-3-one]	6 nM	–
COc1ccc(CCC2CN(C(=O)N3CC[C@@H]4OCC(=O)N[C@@H]4C3)C2)c(C(F)(F)F)c1 [Example [^3H]4, [^3H](4aR,8aS)-6-[3-[2-[4-Methoxy-2-(trifluoromethyl)phenyl]ethyl]azetidine-1-carbonyl]-4,4a,5,7,8,8a-hexahydropyrido[4,3-b][1,4]oxazin-3-one]	–	binding on wt tissue samples (autoradiography) [2]: Selective binding to MAGL; binding on MAGL ko tissue sections (autoradiography; selectivity, non-specific binding) [2]: absence of binding
